Test results reported in ChEMBL document CHEMBL1201862, “PubChem BioAssay data set” (2004).
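Following 48 hours of exposure in 96-well plates, responses at five concentrations were used to interpolate endpoints linearly. At the GI50, growth is halved.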 The source made the active and inactive calls. Cut-off read from the data, not from the text of the source: active = GI50 up to about 1.1 µM and inactive = higher.

Assays:
Test in all cases: NCI anticancer screen, dose series, 48 h
DLD-1 = test system: DLD-1
DMS-273 = test system: DMS-273
M19-MEL = test system: M19-MEL
KM-20L2 = test system: KM-20L2
SNB-78 = test system: SNB-78
LXFL 529 = test system: LXFL 529
DMS-114 = test system: DMS-114
XF498 = test system: XF498
RXF 631 = test system: RXF 631

CN(C)CCNC(=O)C1COc2cc(-c3cc(=O)c4ccccc4o3)ccc2O1 (stereo unspecified)
GI50 (DLD-1): 27.3 µM (inactive) | GI50 (DMS-273): 18.5 µM (inactive) | GI50 (M19-MEL): > 100 µM (inactive) | GI50 (KM-20L2): 22 µM (inactive) | GI50 (SNB-78): 24.7 µM (inactive)

Cn1c(C2CC(C)(C)c3c2c2ccccc2n3C)cc2ccccc21 (stereo unspecified)
GI50 (LXFL 529): > 304 µM (inactive) | GI50 (DMS-114): 138 µM (inactive) | GI50 (DLD-1): > 304 µM (inactive) | GI50 (XF498): 115 µM (inactive) | GI50 (DMS-273): > 304 µM (inactive) | GI50 (M19-MEL): > 304 µM (inactive) | GI50 (KM-20L2): > 304 µM (inactive)

Cc1ccc(C)c2c1CCc1cc3ccccc3nc1-2
GI50 (LXFL 529): > 100 µM (inactive) | GI50 (DMS-114): > 100 µM (inactive) | GI50 (DLD-1): > 100 µM (inactive) | GI50 (XF498): > 100 µM (inactive) | GI50 (M19-MEL): > 100 µM (inactive) | GI50 (KM-20L2): > 100 µM (inactive) | GI50 (SNB-78): > 100 µM (inactive)

C[N+](C)(C)Cc1c(CC#N)[nH]c2ccccc12
GI50 (LXFL 529): > 100 µM (inactive) | GI50 (DMS-114): > 100 µM (inactive) | GI50 (DLD-1): > 100 µM (inactive) | GI50 (XF498): > 100 µM (inactive) | GI50 (DMS-273): > 100 µM (inactive) | GI50 (M19-MEL): > 100 µM (inactive) | GI50 (KM-20L2): > 100 µM (inactive)

COc1ccc(/C(Cl)=C(\C=N/O)c2ccc(OC)c(OC)c2)cc1OC
GI50 (LXFL 529): > 100 µM (inactive) | GI50 (DMS-114): 30.8 µM (inactive) | GI50 (DLD-1): > 100 µM (inactive) | GI50 (XF498): > 100 µM (inactive) | GI50 (DMS-273): > 100 µM (inactive) | GI50 (M19-MEL): > 100 µM (inactive) | GI50 (KM-20L2): > 100 µM (inactive) | GI50 (SNB-78): 75.5 µM (inactive)

Nc1ccc(S(=O)(=O)Nc2ccc(Nc3c4ccccc4nc4ccccc34)cc2)cc1
GI50 (LXFL 529): 3.91 µM (inactive) | GI50 (DMS-114): < 0.0102 µM (active) | GI50 (RXF 631): 0.284 µM (active) | GI50 (DLD-1): 1.06 µM (active) | GI50 (XF498): 3.61 µM (inactive) | GI50 (DMS-273): < 0.01 µM (active) | GI50 (M19-MEL): 0.115 µM (active) | GI50 (KM-20L2): 0.215 µM (active) | GI50 (SNB-78): 3.78 µM (inactive)

COc1ccc(C2=NC(C)(C)CO2)cc1
GI50 (DMS-114): > 100 µM (inactive) | GI50 (DLD-1): > 100 µM (inactive) | GI50 (XF498): > 100 µM (inactive) | GI50 (DMS-273): > 100 µM (inactive) | GI50 (M19-MEL): > 100 µM (inactive) | GI50 (KM-20L2): > 100 µM (inactive) | GI50 (SNB-78): > 100 µM (inactive)

Cn1c2ccccc2n2c3nc4ccccc4nc3c(C#N)c12
GI50 (LXFL 529): > 100 µM (inactive) | GI50 (DMS-114): > 100 µM (inactive) | GI50 (DLD-1): < 0.01 µM (active) | GI50 (XF498): > 100 µM (inactive) | GI50 (DMS-273): > 100 µM (inactive) | GI50 (M19-MEL): < 0.01 µM (active)

O=Cc1cn(S(=O)(=O)c2ccccc2)c2ccccc12
GI50 (LXFL 529): 36.4 µM (inactive) | GI50 (DMS-114): 24.8 µM (inactive) | GI50 (RXF 631): 53.7 µM (inactive) | GI50 (DLD-1): 27.2 µM (inactive) | GI50 (XF498): 46 µM (inactive) | GI50 (M19-MEL): 37.5 µM (inactive) | GI50 (KM-20L2): > 100 µM (inactive) | GI50 (SNB-78): 41.3 µM (inactive)

COC1/C=C\C=C(/C)C(=O)NC2=CC(=O)C(N)=C(CC(C)CC(OC)C(O)C(C)C=C(C)C1OC(N)=O)C2=O (stereo unspecified)
GI50 (LXFL 529): 0.0462 µM (active) | GI50 (RXF 631): 0.303 µM (active) | GI50 (DLD-1): 0.0689 µM (active) | GI50 (XF498): 0.0565 µM (active) | GI50 (M19-MEL): < 0.01 µM (active) | GI50 (KM-20L2): < 0.01 µM (active) | GI50 (SNB-78): 3.55 µM (inactive)

CC1CC2CC(=O)CC3(C1)C2CCCN3CCCO (stereo unspecified)
GI50 (LXFL 529): > 100 µM (inactive) | GI50 (DMS-114): > 100 µM (inactive) | GI50 (RXF 631): > 100 µM (inactive) | GI50 (DLD-1): > 100 µM (inactive) | GI50 (XF498): > 100 µM (inactive) | GI50 (DMS-273): > 100 µM (inactive) | GI50 (M19-MEL): > 100 µM (inactive) | GI50 (SNB-78): > 100 µM (inactive)

Nc1nc(SCCNC(=O)CCc2ccc(O)cc2)nc2c1ncn2C1OC(CO)C(O)C1O (stereo unspecified)
GI50 (DMS-114): > 203 µM (inactive) | GI50 (DLD-1): > 203 µM (inactive) | GI50 (XF498): > 203 µM (inactive) | GI50 (DMS-273): > 203 µM (inactive) | GI50 (M19-MEL): > 203 µM (inactive) | GI50 (KM-20L2): > 203 µM (inactive) | GI50 (SNB-78): > 203 µM (inactive)

CC(=O)n1ccc2c(Cl)ncnc21
GI50 (LXFL 529): > 100 µM (inactive) | GI50 (DMS-114): > 100 µM (inactive) | GI50 (RXF 631): > 100 µM (inactive) | GI50 (DLD-1): > 100 µM (inactive) | GI50 (DMS-273): > 100 µM (inactive) | GI50 (M19-MEL): > 100 µM (inactive) | GI50 (KM-20L2): > 100 µM (inactive) | GI50 (SNB-78): > 100 µM (inactive)

O=c1c2ccccc2c2c3c1cccc3c1cccc3c(=O)c4ccccc4c2c31
GI50 (LXFL 529): > 100 µM (inactive) | GI50 (DMS-114): > 100 µM (inactive) | GI50 (RXF 631): > 100 µM (inactive) | GI50 (DLD-1): > 100 µM (inactive) | GI50 (DMS-273): > 100 µM (inactive) | GI50 (M19-MEL): > 100 µM (inactive) | GI50 (KM-20L2): > 100 µM (inactive) | GI50 (SNB-78): > 100 µM (inactive)

O=C(/C=C/c1c(O)ccc2ccccc12)c1ccc([N+](=O)[O-])cc1
GI50 (LXFL 529): 16.6 µM (inactive) | GI50 (DMS-114): 21.3 µM (inactive) | GI50 (DLD-1): 18.7 µM (inactive) | GI50 (XF498): 27.5 µM (inactive) | GI50 (DMS-273): > 78.7 µM (inactive) | GI50 (M19-MEL): 18.5 µM (inactive) | GI50 (KM-20L2): > 100 µM (inactive) | GI50 (SNB-78): 21.6 µM (inactive)

COc1c(C)cc2c(c1O)C1NC(C2)[C@H](O)N2C3COC(=O)[C@@]4(CS[C@@H](c5c(OC(C)=O)c(C)c6c(c53)OCO6)C12)NCCC1=C4NC2C=CC=CC12 (stereo partly specified)
GI50 (LXFL 529): < 0.01 µM (active) | GI50 (DMS-114): < 0.01 µM (active) | GI50 (RXF 631): < 0.01 µM (active) | GI50 (DLD-1): < 0.01 µM (active) | GI50 (XF498): < 0.01 µM (active) | GI50 (DMS-273): < 0.01 µM (active) | GI50 (M19-MEL): < 0.01 µM (active) | GI50 (KM-20L2): < 0.01 µM (active)

COc1cc2ccnc(C#N)c2cc1OCc1ccccc1
GI50 (LXFL 529): > 100 µM (inactive) | GI50 (DLD-1): > 100 µM (inactive) | GI50 (XF498): 53.6 µM (inactive) | GI50 (KM-20L2): > 100 µM (inactive) | GI50 (SNB-78): > 100 µM (inactive)

Cc1ccccc1C(=O)N1CCN(C(=O)c2ccccc2C)CC1
GI50 (LXFL 529): > 100 µM (inactive) | GI50 (RXF 631): > 100 µM (inactive) | GI50 (DLD-1): > 100 µM (inactive) | GI50 (XF498): > 100 µM (inactive) | GI50 (DMS-273): > 100 µM (inactive) | GI50 (M19-MEL): > 100 µM (inactive) | GI50 (KM-20L2): > 100 µM (inactive) | GI50 (SNB-78): > 100 µM (inactive)

CC[P+](C)(Cc1ccccc1)c1ccccc1.O=C(OC(C(=O)[O-])C(OC(=O)c1ccccc1)C(=O)O)c1ccccc1 (stereo unspecified)
GI50 (DLD-1): > 100 µM (inactive) | GI50 (XF498): > 100 µM (inactive) | GI50 (DMS-273): > 100 µM (inactive) | GI50 (M19-MEL): > 100 µM (inactive) | GI50 (KM-20L2): > 100 µM (inactive) | GI50 (SNB-78): > 100 µM (inactive)

O=C(c1ccccc1)c1nc2c(Cl)ccc(Cl)c2cc1C(Br)Br
GI50 (LXFL 529): 0.39 µM (active) | GI50 (DMS-114): 2.04 µM (inactive) | GI50 (RXF 631): 1.78 µM (inactive) | GI50 (DLD-1): 0.444 µM (active) | GI50 (XF498): 1.07 µM (active) | GI50 (DMS-273): 1.32 µM (inactive) | GI50 (M19-MEL): 1.83 µM (inactive) | GI50 (KM-20L2): 1.04 µM (active) | GI50 (SNB-78): 2.06 µM (inactive)

O=C1C2=C(c3ccccc31)C(c1ccc(F)cc1)N1C(=O)CCSC1=N2 (stereo unspecified)
GI50 (LXFL 529): 45.4 µM (inactive) | GI50 (DMS-114): 71.6 µM (inactive) | GI50 (DLD-1): > 100 µM (inactive) | GI50 (XF498): > 100 µM (inactive) | GI50 (DMS-273): > 100 µM (inactive) | GI50 (M19-MEL): > 100 µM (inactive) | GI50 (KM-20L2): > 100 µM (inactive)

CC/C=C1\N=C(c2ccc(Cl)cc2)OC1=O
GI50 (LXFL 529): > 100 µM (inactive) | GI50 (DMS-114): > 100 µM (inactive) | GI50 (DLD-1): > 100 µM (inactive) | GI50 (XF498): > 100 µM (inactive) | GI50 (DMS-273): > 100 µM (inactive) | GI50 (M19-MEL): > 100 µM (inactive) | GI50 (KM-20L2): > 100 µM (inactive) | GI50 (SNB-78): > 100 µM (inactive)
